Measured values taken from patent publication US20240360107A1, “AN EIF4A INHIBITOR WITH A NOVEL MECHANISM OF ACTION” (ARIZONA BOARD OF REGENTS ON BEHALF OF THE UNIVERSITY OF …, priority 2021, published 2024).
Entries after “also recorded” stand apart in the source; their conditions may differ.

Target: eIF4A (Homo sapiens, UniProt P60842)
Assay: RNA-stimulated malachite green ATPase assay
Type: biochemical
Set-up: 6xHis with TEV protease site (N, cleaved yes); made in house; host or cells: E. coli BL21-CodonPlus
Settings: for potency in the eIF4A ATPase assay (in words): comparison within the series
Procedure: Human eIF4A protein was produced recombinantly and a greater than 100,000-compound screen for inhibitors was completed using a malachite green ATPase assay (FIG. 11A). […] A stable mixture of yeast RNAs was added in an effort to improve this system and create a more biologically relevant eIF4A assay. eIF4A ATPase activity was accelerated without a statistically significant increase in the background signal in the presence of this RNA (FIG. 11B), and the new conditions gave excellent statistical parameters in a 384-well plate format (FIG. 11C).
ATPase assay. Recombinant WT or mutant eIF4A was added to a clear bottom 384 well plate (Greiner) in ATPase buffer (20 mM Tris pH 7.4, 80 mM KCl, 2.5 mM MgCl2, 1 mM DTT, 1% glycerol). Compounds were added and the plate was incubated at 37° C. for 20 min. ATP/RNA solution was added to afford a 20 μL per well reaction volume with 750 nM eIF4A, 250 μM ATP, and 0.25 mg/mL Yeast RNA (Sigma) for the initial screen and dose responses, and varying concentrations of ATP and RNA for the kinetic assays. The plate was incubated for 4 h at 37° C. for the initial screen and dose responses, and at seven time points (1 hour-7 hours) for kinetic assays. 0.04% v/v (final concentration) Tween-20 was added to a Malachite Green solution, and the Malachite Green (40 μL per well) was added. The solution was incubated for 5 minutes at room temperature and Absorbance at 660 nm was read on a SpectraMax iD5 plate reader (Molecular Devices).

eIF4A, sequence (P60842 whole entry): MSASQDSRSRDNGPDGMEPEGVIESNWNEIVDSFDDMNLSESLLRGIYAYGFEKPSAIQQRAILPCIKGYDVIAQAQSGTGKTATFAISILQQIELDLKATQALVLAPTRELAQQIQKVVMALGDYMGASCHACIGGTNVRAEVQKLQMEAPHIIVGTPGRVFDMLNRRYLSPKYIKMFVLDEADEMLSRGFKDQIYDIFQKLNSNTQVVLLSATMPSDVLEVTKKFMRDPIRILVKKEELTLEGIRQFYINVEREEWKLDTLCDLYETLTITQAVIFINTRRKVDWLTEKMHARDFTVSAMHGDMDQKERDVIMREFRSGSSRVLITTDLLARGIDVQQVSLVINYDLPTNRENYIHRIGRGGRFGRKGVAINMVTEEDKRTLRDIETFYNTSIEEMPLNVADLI

Compound	potency in the eIF4A ATPase assay (in words)	further results
CCCCc1ccc(-c2ccc(-c3cc(C(=O)OCC)c4cc(Br)ccc4n3)o2)cc1 [Compound 2, ethyl 6-bromo-2-(5-(4-butylphenyl)furan-2-yl)quinoline-4-carboxylate]		fold less potent than compound 1 in the ATPase assay (relative to compound 1): about 5 fold
CCCCc1ccc(-c2ccc(-c3cc(C(=O)O)c4ccccc4n3)o2)cc1 [Compound 3, 2-(5-(4-butylphenyl)furan-2-yl)quinoline-4-carboxylic acid]	much less potent than compound 1	
CCCCc1ccc(-c2ccc(-c3cc(C(=O)O)c4c(Cl)cccc4n3)o2)cc1 [Compound 4, 2-(5-(4-butylphenyl)furan-2-yl)-5-chloroquinoline-4-carboxylic acid]	large drop in potency	
CCCCc1ccc(-c2ccc(-c3cc(C(=O)O)c4cc(Cl)ccc4n3)o2)cc1 [Compound 6, 2-(5-(4-butylphenyl)furan-2-yl)-6-chloroquinoline-4-carboxylic acid]	moderate losses of potency compared to the bromine substituent	
CCCCc1ccc(-c2ccc(-c3cc(C(=O)O)c4cc(I)ccc4n3)o2)cc1 [Compound 7, 2-(5-(4-butylphenyl)furan-2-yl)-6-iodoquinoline-4-carboxylic acid]	moderate losses of potency compared to the bromine substituent	
CCCCc1ccc(-c2ccc(-c3cc(C(=O)O)c4ccc(F)cc4n3)o2)cc1 [Compound 8, 2-(5-(4-butylphenyl)furan-2-yl)-7-fluoroquinoline-4-carboxylic acid]	moderate potency	
CCCCc1ccc(-c2ccc(-c3cc(C(=O)O)c4ccc(Br)cc4n3)o2)cc1 [Compound 10, 7-bromo-2-(5-(4-butylphenyl)furan-2-yl)quinoline-4-carboxylic acid]	moderate potency	
CCCCc1ccc(-c2ccc(-c3cc(C(=O)O)c4cccc(Cl)c4n3)o2)cc1 [Compound 11, 2-(5-(4-butylphenyl)furan-2-yl)-8-chloroquinoline-4-carboxylic acid]	less potent than bromine (12)	
CCCCc1ccc(-c2ccc(-c3cc(C(=O)O)c4cc(OC)ccc4n3)o2)cc1 [Compound 21, 2-(5-(4-butylphenyl)furan-2-yl)-6-methoxyquinoline-4-carboxylic acid]	much more potent than 7-methoxy (22)	
CCCCc1ccc(-c2ccc(-c3cc(C(=O)O)c4ccc(OC)cc4n3)o2)cc1 [Compound 22, 2-(5-(4-butylphenyl)furan-2-yl)-7-methoxyquinoline-4-carboxylic acid]	neither were more potent than earlier molecules in the series	
CCCCc1ccc(-c2ccc(-c3cc(C(=O)O)c4cc(OC(F)(F)F)ccc4n3)o2)cc1 [Compound 23, 2-(5-(4-butylphenyl)furan-2-yl)-6-(trifluoromethoxy)quinoline-4-carboxylic acid]	much less potent than compound 21	
CCCCc1ccc(-c2ccc(-c3cc(C(=O)O)c4ccc(C(F)(F)F)cc4n3)o2)cc1 [Compound 26, 2-(5-(4-butylphenyl)furan-2-yl)-7-(trifluoromethyl)quinoline-4-carboxylic acid]	performed better in the ATPase assay than molecules with electron-donating substitutions	
CCCCc1ccc(-c2ccc(-c3cc(C(=O)O)c4cccc(C(F)(F)F)c4n3)o2)cc1 [Compound 27, 2-(5-(4-butylphenyl)furan-2-yl)-8-(trifluoromethyl)quinoline-4-carboxylic acid]	performed better in the ATPase assay than molecules with electron-donating substitutions; also recorded: about two-fold better than compound 26	
CCCCc1ccc(-c2ccc(-c3cc(C(=O)O)c4cccc([N+](=O)[O-])c4n3)o2)cc1 [Compound 30, 2-(5-(4-butylphenyl)furan-2-yl)-8-nitroquinoline-4-carboxylic acid]	over three-fold less potent than compound 28	
CCCCc1ccc(-c2ccc(-c3cc(C(=O)O)c4cc([N+](=O)[O-])ccc4n3)s2)cc1 [Compound 31, 2-(5-(4-butylphenyl)thiophen-2-yl)-6-nitroquinoline-4-carboxylic acid]	large drop in potency	
CCCCc1ccc(-c2ccc(-c3cc(C(=O)O)c4cc([N+](=O)[O-])ccc4n3)[nH]2)cc1 [Compound 32, 2-(5-(4-butylphenyl)-1H-pyrrol-2-yl)-6-nitroquinoline-4-carboxylic acid]	large drop in potency	
CCCCc1ccc(-c2cccc(-c3cc(C(=O)O)c4cc([N+](=O)[O-])ccc4n3)c2)cc1 [Compound 33, 2-(4′-butyl-[1,1′-biphenyl]-3-yl)-6-nitroquinoline-4-carboxylic acid]	drop in potency	
CCCCc1ccc(-c2cccc(-c3cc(C(=O)O)c4cc([N+](=O)[O-])ccc4n3)n2)cc1 [Compound 34, 2-(6-(4-butylphenyl)pyridin-2-yl)-6-nitroquinoline-4-carboxylic acid]	drop in potency	
CCCCc1ccc(-c2cncc(-c3cc(C(=O)O)c4cc([N+](=O)[O-])ccc4n3)c2)cc1 [Compound 35, 2-(5-(4-butylphenyl)pyridin-3-yl)-6-nitroquinoline-4-carboxylic acid]	lost potency altogether	
CCCCc1ccc(-c2ccc(-c3cc(C(=O)O)c4cc([N+](=O)[O-])ccc4n3)cc2)cc1 [Compound 36, 2-(4′-butyl-[1,1′-biphenyl]-4-yl)-6-nitroquinoline-4-carboxylic acid]	much less potent than 28	
CCCCc1ccc(-c2ccc(-c3cc(C(=O)O)c4cc([N+](=O)[O-])ccc4n3)cn2)cc1 [Compound 37, 2-(6-(4-butylphenyl)pyridin-3-yl)-6-nitroquinoline-4-carboxylic acid]	much less potent than 28	
O=C(O)c1cc(-c2ccc(-c3ccccc3)o2)nc2ccc([N+](=O)[O-])cc12 [Compound 38, 6-nitro-2-(5-phenylfuran-2-yl)quinoline-4-carboxylic acid]	drastic loss in potency	
CCCc1ccc(-c2ccc(-c3cc(C(=O)O)c4cc([N+](=O)[O-])ccc4n3)o2)cc1 [Compound 39, 6-nitro-2-(5-(4-propylphenyl)furan-2-yl)quinoline-4-carboxylic acid]		fold less potent than 28 in the ATPase assay (relative to compound 28): about 5 fold
CCCCCc1ccc(-c2ccc(-c3cc(C(=O)O)c4cc([N+](=O)[O-])ccc4n3)o2)cc1 [Compound 40, 6-nitro-2-(5-(4-pentylphenyl)furan-2-yl)quinoline-4-carboxylic acid]	no more potent than 28	
CC(C)(C)OC(=O)Nc1cccc(-c2ccc(-c3cc(C(=O)O)c4cc([N+](=O)[O-])ccc4n3)o2)c1 [Compound 44, 2-(5-(3-((tert-butoxycarbonyl)amino)phenyl)furan-2-yl)-6-nitroquinoline-4-carboxyli c acid]	low potency	
CC(C)(C)OC(=O)Nc1ccc(-c2ccc(-c3cc(C(=O)O)c4cc([N+](=O)[O-])ccc4n3)o2)cc1 [Compound 45, 2-(5-(4-((tert-butoxycarbonyl)amino)phenyl)furan-2-yl)-6-nitroquinoline-4-carboxylic acid]	low potency	
